Consider five molecules from ChEMBL document CHEMBL1130465, “Peptidic prodrugs of novel aminomethyl-THF 1-methylcarbapenems” (1997).

In brackets after ≈: the same amount, converted by molar mass.

What all share (format): functional
The species named for test [1] is Mus musculus. Briefly: animal or person. To be noted: Mus musculus, po; read-out: ED50.
Description: Tested for oral activity against Escherichia coli #311 infection in mice after single oral dose(SOD)
Test [2] is described as follows: Ratio of ED50 of single oral dose to ED50 of single subcutaneous dose against Staphylococcus aureus smith infection in mice.
For test [3], the system named is Morganella morganii. Briefly: In vitro antimicrobial activity against Morganella morganii GC 2213 strain. As to conditions: Morganella morganii; read-out: MIC.
Test [4] relates to Enterococcus faecium. Briefly: In vitro antimicrobial activity against Enterococcus faecium GC 1182 strain.
Test [5] has as its system Staphylococcus aureus. Description: In vitro antimicrobial activity against Staphylococcus aureus ATCC 29213 strain.
Test [6] relates to Staphylococcus aureus. Briefly: In vitro antimicrobial activity against Staphylococcus aureus GC 2220 strain. As to conditions: Staphylococcus aureus; read-out: MIC.
Test [7] relates to Pseudomonas aeruginosa. Briefly: In vitro antimicrobial activity against Pseudomonas aeruginosa ATCC 27853 strain. To be noted: Pseudomonas aeruginosa, ATCC 27853; read-out: MIC.
The species named for test [8] is Mus musculus. Description: animal or person. To be noted: Mus musculus; read-out: ED50.
Description: Tested for oral activity against Escherichia coli #311 infection in mice after single subcutaneous dose(SSC)
The test system of test [9] is Escherichia coli. Briefly: In vitro antimicrobial activity against Escherichia coli ATCC 25922 strain.
For test [10], the system named is Enterobacter cloacae. Description: In vitro antimicrobial activity against Enterobacter cloacae GC 2209 strain.
Test [11] concerns Citrobacter freundii. Description: In vitro antimicrobial activity against Citrobacter freundii GC 2211 strain. To be noted: Citrobacter freundii; read-out: MIC.
Test [12] relates to Escherichia coli. Description: In vitro antimicrobial activity against Escherichia coli GC 2205 strain.
For test [13], the system named is Stenotrophomonas maltophilia. Description: In vitro antimicrobial activity against Xanthomonas maltophilia GC 562 strain.
Test [14] deals with Pseudomonas aeruginosa. Description: In vitro antimicrobial activity against Pseudomonas aeruginosa GC 1544 strain. To be noted: Pseudomonas aeruginosa; read-out: MIC.
For test [15], the system named is Acinetobacter calcoaceticus. Description: In vitro antimicrobial activity against Acinetobacter calcoaceticus GC 756 strain. To be noted: Acinetobacter calcoaceticus; read-out: MIC.
The test system of test [16] is Mus musculus. Briefly: Tested for oral activity against Staphylococcus aureus smith infection in mice after single oral dose(SOD). As to conditions: Mus musculus, po; read-out: ED50.
Test [17] deals with Enterococcus faecalis. Description: In vitro antimicrobial activity against Enterococcus faecalis GC 842 strain.
For test [18], the system named is Escherichia coli. Briefly: In vitro antimicrobial activity against Escherichia coli GC 1792 strain. To be noted: Escherichia coli; read-out: MIC.
Test [19] has as its system Mus musculus. Description: Tested for oral activity against Staphylococcus aureus smith infection in mice after single subcutaneous dose(SSC). As to conditions: Mus musculus; read-out: ED50.
Setting [20] is: Enterococcus faecium, read-out: MIC.
Setting [21] is: Enterococcus faecalis, read-out: MIC.

For orientation: ED50 means the dose that gives a 50% effect, or the effect in half of the subjects. What is called MIC is the smallest concentration in the dilution series that meets the test's criterion for growth inhibition. For the molecule `C[C@@H](O)[C@H]1C(=O)N2C(C(=O)O)=C(S[C@@H]3CCO[C@@H]3CN)[C@H](C)[C@H]12`, the ED50 in [1] is 3.8 mg/kg; in test [8], 0.34 mg/kg; in [16], 0.88 mg/kg; in [19] it was 0.04 mg/kg. Also, the Ratio in [2] was 22. Also, the MIC is 0.5 µg/mL (≈ 1.46 µM) in test [3]; 64 µg/mL (≈ 187 µM) in test [4]; no more than 0.06 µg/mL in test [5]; 1 µg/mL (≈ 2.92 µM) in [6]; 8 µg/mL (≈ 23.4 µM) in test [7]; no more than 0.06 µg/mL in [9]. The MIC is no more than 0.06 µg/mL in test [10]; no more than 0.06 µg/mL in [11]; no more than 0.06 µg/mL in test [12]; greater than 128 µg/mL in test [13]; 16 µg/mL (≈ 46.7 µM) in test [14]; 2 µg/mL (≈ 5.84 µM) in test [15]. Further, the MIC is 0.5 µg/mL (≈ 1.46 µM) in test [17] and no more than 0.06 µg/mL in test [18].
Take `CC[C@@H](C)[C@@H](N)C(=O)NC[C@H]1OCC[C@H]1SC1=C(C(=O)O)N2C(=O)[C@H]([C@@H](C)O)C2[C@H]1C` (some centres undefined): the median effective dose (ED50) in test [1] was 0.58 mg/kg; in test [8], 1.1 mg/kg; in test [16], 0.21 mg/kg; in test [19], 0.28 mg/kg. The Ratio in test [2] is listed as 0.75. Moreover, the minimal inhibitory concentration (MIC) was 2 µg/mL (≈ 4.39 µM) in test [3]; greater than 128 µg/mL in test [4] (setting [20]); 0.25 µg/mL (≈ 0.549 µM) in [5]; 32 µg/mL (≈ 70.2 µM) in test [6]; 64 µg/mL (≈ 140 µM) in test [7]; no more than 0.06 µg/mL in [9]. In addition, the minimum inhibitory concentration (MIC) is 4 µg/mL (≈ 8.78 µM) in test [11]; no more than 0.06 µg/mL in test [12]; greater than 128 µg/mL in test [13]; 128 µg/mL (≈ 281 µM) in test [14]; 64 µg/mL (≈ 140 µM) in test [15]; 2 µg/mL (≈ 4.39 µM) in [17] (setting [21]). Further, the MIC in test [18] was determined as 0.25 µg/mL (≈ 0.549 µM).
With `C[C@@H](N)C(=O)NC[C@H]1OCC[C@H]1SC1=C(C(=O)O)N2C(=O)[C@H]([C@@H](C)O)C2[C@H]1C` (some centres undefined), the median effective dose (ED50) in [1] turned out to be 0.55 mg/kg; in test [8], 0.28 mg/kg; in [16] it was 0.09 mg/kg; in [19], 0.04 mg/kg. In addition, the Ratio in [2] was determined as 2.2. For the same molecule, the MIC is 1 µg/mL (≈ 2.42 µM) in test [3]; greater than 128 µg/mL in test [4] (setting [20]); 0.12 µg/mL (≈ 0.29 µM) in [5]; 8 µg/mL (≈ 19.3 µM) in test [6]; 32 µg/mL (≈ 77.4 µM) in [7]; no more than 0.06 µg/mL in [9]. Moreover, the minimum inhibitory concentration (MIC) was 0.25 µg/mL (≈ 0.605 µM) in test [10]; 1 µg/mL (≈ 2.42 µM) in test [11]; no more than 0.06 µg/mL in [12]; greater than 128 µg/mL in [13]; 64 µg/mL (≈ 155 µM) in [14]; 16 µg/mL (≈ 38.7 µM) in test [15]. Moreover, the values for the MIC in test [17] (setting [21]) and in test [18] were 4 µg/mL (≈ 9.67 µM) and no more than 0.06 µg/mL, respectively.
Take `C[C@H]1C(S[C@@H]2CCO[C@@H]2CNC(=O)CN)=C(C(=O)O)N2C(=O)[C@H]([C@@H](C)O)C12` (some centres undefined): the ED50 in [1] was determined as 1.4 mg/kg; in test [8] it was 0.56 mg/kg; in test [16] it was 0.41 mg/kg; in test [19] it was 0.15 mg/kg. In [2], the Ratio was found to be 2.7. Also, the MIC in test [3] is 0.5 µg/mL (≈ 1.25 µM); in test [4] (setting [20]), greater than 128 µg/mL; in test [5], 0.12 µg/mL (≈ 0.3 µM); in test [6] it was 8 µg/mL (≈ 20 µM); in [7] it was 8 µg/mL (≈ 20 µM); in test [9], less than 0.06 µg/mL. Further, the minimum inhibitory concentration (MIC) was less than 0.06 µg/mL in test [10]; 0.5 µg/mL (≈ 1.25 µM) in test [11]; less than 0.06 µg/mL in [12]; greater than 128 µg/mL in test [13]; 64 µg/mL (≈ 160 µM) in [14]; 8 µg/mL (≈ 20 µM) in test [15]. Moreover, the minimal inhibitory concentration (MIC) in test [17] (setting [21]) is 2 µg/mL (≈ 5.01 µM); in test [18] it was less than 0.06 µg/mL.
For `C[C@H]1C(S[C@@H]2COC[C@@H]2CN)=C(C(=O)O)N2C(=O)[C@H]([C@@H](C)O)C12` (some centres undefined), the MIC in [3] is 2 µg/mL (≈ 5.84 µM); in test [4] (setting [20]), greater than 128 µg/mL; in test [5], 0.12 µg/mL (≈ 0.35 µM); in [6] it was 16 µg/mL (≈ 46.7 µM); in [7], 16 µg/mL (≈ 46.7 µM); in test [9], 0.12 µg/mL (≈ 0.35 µM). Moreover, the MIC in [10] is 0.12 µg/mL (≈ 0.35 µM); in test [11] it was 0.5 µg/mL (≈ 1.46 µM); in [12], 0.12 µg/mL (≈ 0.35 µM); in [13], greater than 128 µg/mL; in test [14] it was 32 µg/mL (≈ 93.5 µM); in [15], 16 µg/mL (≈ 46.7 µM). In addition, the MIC in [17] (setting [21]) worked out at 8 µg/mL (≈ 23.4 µM); in test [18], 0.12 µg/mL (≈ 0.35 µM).
